Values of other authors as cited in patent US5859021A, “Antiviral combinations” (priority 1991, dated 1999).

How the values were obtained:
[1] = test system: HIV
[2] = versus (+) enantiomer
[3] = test system: patients with AIDS; settings: for toxicity in patients: AIDS patients, AZT: long-term therapy
[4] = test system: normal human bone marrow progenitor cells; settings: combination with high-dose AZT, antiviral activity not affected

Compound: Nc1ccn([C@@H]2CS[C@H](CO)O2)c(=O)n1 (racemic) [compound of formula (I), (±)-(cis)-4-Amino-1-(2-hydroxymethyl-1,3-oxathiolan-5-yl)-(1H)-pyrimidin-2-one]
- antiviral activity against HIV [1]: having antiviral activity

Compound: Nc1ccn([C@@H]2CS[C@H](CO)O2)c(=O)n1 [3TC]
- cytotoxicity compared with the (+) enantiomer [2]: considerably lower cytotoxicity than the (+) enantiomer

Compound: Cc1cn([C@H]2C[C@H](N=[N+]=[N-])[C@@H](CO)O2)c(=O)[nH]c1=O [AZT, 3'-azido-3'-deoxythymidine]
- toxicity in patients [3]: bone-marrow toxicity
- appearance of resistant HIV-1 variants ([3]; long-term AZT therapy): appearance of AZT-resistant variants of HIV-1
- morbidity and mortality ([3]; patients with AIDS): reduces morbidity and mortality
- inhibition of HIV replication in vitro ([1]; in vitro): inhibit HIV replication in vitro
- antiviral activity in combination ([1]; in vitro, with recombinant soluble CD4, castanospermine and recombinant interferon alpha): synergistic antiviral activity

Compound: Nc1ccn([C@H]2CC[C@@H](CO)O2)c(=O)n1 [ddC, 2',3'-dideoxycytidine]
- effect on bone marrow cytotoxicity of high-dose AZT [4]: eliminates the bone marrow cytotoxicity of high-dose AZT
- toxicity in patients [3]: peripheral neurophathy
- antiviral activity of AZT in combination with ddC [1]: without affecting its antiviral activity
- inhibition of HIV replication in vitro ([1]; in vitro): inhibit HIV replication in vitro

Compound: OC[C@@H]1CC[C@H](n2cnc3c(O)ncnc32)O1 [ddI, 2',3'-dideoxyinosine]
- toxicity in patients [3]: pancreatitis and peripheral neuropathy
- inhibition of HIV replication in vitro ([1]; in vitro): inhibit HIV replication in vitro
